Laboratory results from US20240041042A1, “1-(PYRIDYL)-5-AZINYLPYRAZOLE DERIVATIVES, AND THEIR USE FOR CONTROL OF UNDESIRED PLANT GROWTH” (Bayer Aktiengesellschaft, priority 2020, published 2024).
Where two headings read alike, the source gives them in different places.

Experiments:
Format in all cases: in vivo
[1] = tested on: Polygonum convolvulus (POLCO); assay: Post-emergence herbicidal action against POLCO; details: dosage 320 g/ha
How it was run: (§1)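 Post-emergence greenhouse spray, one-leaf stage, 600 l/ha water plus 0.5% additive; WP or EC formulations; application rates 320 g/ha or lower. Visual % damage vs untreated controls at ~3 weeks.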

[2] = tested on: Amaranthus retroflexus (AMARE); assay: Pre-emergence herbicidal action against AMARE; details: visual scoring after about 3 weeks vs untreated controls
How it was run: (§2)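 Pre-emergence soil-surface spray, WP/EC formulation, 0.5% additive, 600 l/ha water, rates of 320 g/ha or lower. Greenhouse, ~3 wk. Visual score, % of untreated control (100% = plants dead, 0% = like control).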

[3] = tested on: Alopecurus myosuroides (ALOMY); assay: Post-emergence herbicidal action against ALOMY; details: visual rating about 3 weeks after treatment vs untreated controls (100% = plants have died, 0% = like control plants)
How it was run: as §1

Oryza sativa (ORYSA) = details: crop plant compatibility
How it was run: (§3)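 One-leaf-stage crops (2–3 wk post-sowing, sandy loam, greenhouse) sprayed on green parts; 0.5% additive, 600 l/ha water. Rated by eye ~3 wk later, % vs untreated; suffixes a/b/c mark different dosages.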

[4] = tested on: Alopecurus myosuroides (ALOMY); assay: Pre-emergence herbicidal action against ALOMY; details: scored visually after about 3 weeks, 100% = plants have died
How it was run: as §2

Avena fatua (AVEFA) [5] = assay: Post-emergence herbicidal action against AVEFA; details: visual rating about 3 weeks after treatment
How it was run: as §1

Lolium rigidum (LOLRI) [6] = assay: Pre-emergence herbicidal action against LOLRI; details: dosage 320 g/ha
How it was run: as §2

Viola tricolor (VIOTR) [7] = assay: Post-emergence herbicidal action against VIOTR; details: 320 g/ha
How it was run: as §1

[8] = tested on: Digitaria sanguinalis (DIGSA); assay: Pre-emergence herbicidal action against DIGSA; details: dosage 320 g/ha
How it was run: as §2

[9] = tested on: Amaranthus retroflexus (AMARE); assay: Post-emergence herbicidal action against AMARE; details: 320 g/ha, visual rating about 3 weeks after treatment
How it was run: as §1

[10] = tested on: Pharbitis purpurea (PHBPU); assay: Post-emergence herbicidal action against PHBPU
How it was run: as §1

Viola tricolor (VIOTR) [11] = assay: Pre-emergence herbicidal action against VIOTR
How it was run: as §2

Brassica napus (BRSNW) = details: 80 g/ha, crop plant compatibility, in comparison to untreated controls
How it was run: (§4)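 Crop injury rated visually in percent against untreated plants roughly 3 weeks after treatment (0% no effect, 100% plants dead). Compounds, as WP or EC with 0.5% additive in 600 l/ha water, were applied to the covering soil right after sowing; greenhouse growth. Suffixes a, b, c denote different dosages.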

Zea mays (ZEAMX) [12] = details: pre-emergence, 80 g/ha, crop plant compatibility, in comparison to untreated controls
How it was run: as §4

[13] = tested on: Verconica persica (VERPE); assay: Pre-emergence herbicidal action against VERPE
How it was run: as §2

Setaria viridis (SETVI) = assay: Pre-emergence herbicidal action against SETVI; details: dosage 320 g/ha
How it was run: as §2

Zea mays (ZEAMX) [14] = tested on: Zea mays (ZEAMX)
How it was run: as §3

Lolium rigidum (LOLRI) [15] = assay: Post-emergence herbicidal action against LOLRI; details: dosage 80 g/ha
How it was run: as §1

[16] = tested on: Polygonum convolvulus (POLCO); assay: Pre-emergence herbicidal action against POLCO
How it was run: as §2

Avena fatua (AVEFA) [17] = assay: Pre-emergence herbicidal action against AVEFA; details: 320 g/ha, visual scoring after about 3 weeks vs untreated controls
How it was run: as §2

[18] = tested on: Echinochloa crus-galli (ECHCG); assay: Pre-emergence herbicidal action against ECHCG; details: dosage 320 g/ha
How it was run: as §2

[19] = tested on: Echinochloa crus-galli (ECHCG); assay: Post-emergence herbicidal action against ECHCG; details: dosage 80 g/ha
How it was run: as §1

[20] = tested on: Matricaria inodora (MATIN); assay: Pre-emergence herbicidal action against MATIN; details: dosage 320 g/ha
How it was run: as §2

[21] = 80 g/ha, effect in comparison to untreated controls

COC(=O)CCOC(=O)[C@@H](C)Oc1nn(-c2ccccn2)c(-c2ccc(Cl)nc2)c1Cl [Example I-245]
Post-emergence action against POLCO in % [1]: 80% | Pre-emergence action against AMARE in % ([2]; 320 g/ha): 80% | Post-emergence action against ALOMY in % ([3]; 320 g/ha): 80% | Post-emergence action against ORYSA in % (Oryza sativa (ORYSA); [21]): 0% | Pre-emergence action against ALOMY ([4]; 320 g/ha): 90% | Post-emergence action against AVEFA in % (Avena fatua (AVEFA) [5]; 320 g/ha): 80% | Pre-emergence action against LOLRI in % (Lolium rigidum (LOLRI) [6]): 90% | Post-emergence action against VIOTR in % (Viola tricolor (VIOTR) [7]): 80% | Pre-emergence action against DIGSA in % [8]: 90% | Post-emergence action against AMARE in % [9]: 80% | Post-emergence action against PHBPU in % ([10]; dosage 80 g/ha): 80% | Post-emergence action against PHBPU in % ([10]; dosage 320 g/ha): 90% | Pre-emergence action against VIOTR in % (Viola tricolor (VIOTR) [11]; 320 g/ha, Viola tricolor): 80% | Pre-emergence action against BRSNW in % (Brassica napus (BRSNW)): 0% | Pre-emergence action against ZEAMX in % (Zea mays (ZEAMX) [12]): 0%

COC(=O)[C@@H](C)Oc1nn(-c2ncccc2Cl)c(-c2ccc(F)nc2)c1Br [Example I-24]
Pre-emergence action against VERPE in % ([13]; dosage 80 g/ha): 80% | Pre-emergence action against VERPE in % ([13]; dosage 320 g/ha): 100% | Pre-emergence action against SETVI in % (Setaria viridis (SETVI)): 90% | Pre-emergence action against AMARE in % ([2]; 80 g/ha): 90% | Pre-emergence action against AMARE in % ([2]; 320 g/ha): 100% | Post-emergence action against ALOMY in % ([3]; 80 g/ha): 90% | Post-emergence action against ORYSA in % (Oryza sativa (ORYSA); 20 g/ha, effect vs untreated controls): 0% | Post-emergence action against ORYSA in % (Oryza sativa (ORYSA); [21]): 10% | Post-emergence action against ZEAMX in % (crop plant compatibility) (Zea mays (ZEAMX) [14]; 20 g/ha, ZEAMX, effect in comparison to untreated controls): 10% | Post-emergence action against ZEAMX in % (Zea mays (ZEAMX) [14]; crop plant compatibility, 80 g/ha, effect vs untreated controls): 20% | Pre-emergence action against ALOMY ([4]; 80 g/ha): 100% | Pre-emergence action against ALOMY ([4]; 320 g/ha): 100% | Post-emergence action against AVEFA in % (Avena fatua (AVEFA) [5]; 80 g/ha): 90% | Post-emergence action against LOLRI in % (Lolium rigidum (LOLRI) [15]): 90% | Pre-emergence action against LOLRI in % (Lolium rigidum (LOLRI) [6]): 100% | Pre-emergence action against POLCO in % ([16]; dosage 80 g/ha): 90% | Pre-emergence action against POLCO in % ([16]; dosage 320 g/ha): 90% | Pre-emergence action against AVEFA in % (Avena fatua (AVEFA) [17]): 100% | Pre-emergence action against ECHCG in % [18]: 100% | Pre-emergence action against VIOTR in % (Viola tricolor (VIOTR) [11]; 320 g/ha, Viola tricolor): 100% | Pre-emergence action against VIOTR in % (Viola tricolor (VIOTR) [11]; dosage 80 g/ha): 90% | Pre-emergence action against BRSNW in % (Brassica napus (BRSNW)): 20% | Pre-emergence action against ZEAMX in % (Zea mays (ZEAMX) [12]): 10% | Post-emergence action against ECHCG in % [19]: 80% | Pre-emergence action against MATIN in % [20]: 90%
